# According to article PMC3744471, “Mitochondria Are the Target Organelle of Differentiation-Inducing Factor-3, an Anti-Tumor Agent Isolated from Dictyostelium Discoideum” (PLoS ONE, 2013):
# Key:
# HeLa cells = assay: Fluorescence microscopy: membrane permeability and cellular localization; type: cell-based, human; conditions: 20 µM
# Procedure: (§1) HeLa cells were cultured for 1–2 days with 2 ml DMEM-FBS in 35-mm tissue culture dishes (Becton Dickinson), washed twice with PBS(–), and then fixed for 15–20 min at room temperature with 2 ml of 3.7% (v/v) formaldehyde in PBS(–). The cells were then washed twice with PBS(–) and used for staining with the fluorescent probes. Alternatively, the fixed cells were treated for 15–20 min with 2 ml of 0.1% (w/v) Triton X-100 in PBS(–), washed twice with PBS(–), and used for staining with the fluorescent probes. […]
# (§2) For high magnification multi-color imaging, cells were incubated for the appropriate times with 2 ml of DMEM-FBS (HeLa and 3T3-L1) or MEM-α-FBS (LM8) containing various compounds in 35-mm plastic dishes (tissue culture treated µ-Dish; ibidi, Martinsried, Germany). The cells were washed twice with 2 ml of PBS(–), submerged in 2 ml of Hepes buffer (pH 7.4), and observed at room temperature with a Keyence BZ-9000 fluorescence microscope (Osaka, Japan) equipped with an oil immersion 100× lens (CFI Plan Apo VC100XH) and multi-filters that can distinguish four fluorescent probes simultaneously. […]
# [1] = as above; type: cell-based, human; conditions: human, pH 7.4, HeLa, read-out: Time to reach maximal level in cells
# Procedure: as §1, §2
# [2] = test system: calmodulin-dependent cyclic nucleotide phosphodiesterase (PDE1); parameters: method as in PMID 15059913; conditions: cited from earlier work
# [3] = test system: mitochondrial malate dehydrogenase (mMDH); parameters: method as in PMID 20173310; conditions: cited from earlier work
Time to penetrate the cell membrane (HeLa cells) [min],Tmax at 20 µM [1] [min],SMILES,Inhibition of PDE1 [2],Binding to and inhibition of mMDH [3]
≤ 2,≤ 30,CCCCCC(=O)c1c(O)cc(OCCCCNC(=O)CCC2=[N+]3C(=Cc4c(C)cc(C)n4[B-]3(F)F)C=C2)c(Cl)c1O [BODIPY-DIF-3],,
,,"CCCCCC(=O)c1c(O)cc(OC)c(Cl)c1O [DIF-3, 1-(3-chloro-2,6-dihydroxy-4-methoxyphenyl)hexan-1-one]",direct inhibitors of PDE1,neither binds nor inhibits mMDH
